Counter-ions that a name gives are not always drawn.
Key:
Male Wistar rats [1] = assay: Effects on hindlimb blood flow (laser Doppler); assay type: in vivo; details: po; 10 mg/kg p.o.; rat hindlimb; read-out: % of increase of blood flow
From the text: As one of the study to clarify the usefulness of the compounds of the present invention for peripheral arterial disease, we conducted a study to evaluate the effects of the compounds on hindlimb blood flow in rats.
Male Wistar rats were anesthetized by intraperitoneal pentobarbital injection (Kanto chemical, Japan) after oral administration of compounds. Rats were placed on a heating plate for subsequent hindlimb blood flow analysis. We measured hindlimb blood flow using a laser Doppler blood flow meter (PeriScan System, Stockholm, Sweden). After the laser Doppler images were recorded, the average perfusion values of both limbs were calculated, and evaluated the effects of compounds on hindlimb blood flow. Each experiment was performed in about 4 animals.

Male Wistar rats [2] = assay: Inhibitory effects on phenylephrine-induced elevation of urethral pressure; assay type: in vivo; details: Rattus norvegicus, iv; phenylephrine 30 μg/kg i.v.; anesthetized rats; read-out: Inhibition of elevation in urethral pressure ED30
From the text: To evaluate the usefulness of the compounds of the present invention for urinary dysfunction associated with benign prostatic hyperplasia, we investigated the inhibitory effects of the intravenous administration of the compounds on phenylephrine-induced elevation of the urethral pressure in rats.
Male Wistar rats were anesthetized with urethane (SIGMA, USA). After midline abdominal incision, catheter to measure the urethral pressure (3.5 Fr, Millar, USA) was inserted into the urethra from top of the bladder. After confirming the Phenylephrine (30 μg/kg i.v.)-induced elevation of the urethral pressure, compounds were administered intravenously in increasing doses. Every 5 min after administration of compounds, Phenylephrine (30 μg/kg i.v.) was injected, and the inhibitory effects of compounds on phenylephrine-induced elevation of urethral pressure were evaluated. Each experiment was performed in about 4 animals.

human ROCK I = human ROCK I (Homo sapiens, UniProt Q13464); assay: ROCK enzyme inhibition assay; assay type: biochemical
Chain of human ROCK I (Q13464 whole entry): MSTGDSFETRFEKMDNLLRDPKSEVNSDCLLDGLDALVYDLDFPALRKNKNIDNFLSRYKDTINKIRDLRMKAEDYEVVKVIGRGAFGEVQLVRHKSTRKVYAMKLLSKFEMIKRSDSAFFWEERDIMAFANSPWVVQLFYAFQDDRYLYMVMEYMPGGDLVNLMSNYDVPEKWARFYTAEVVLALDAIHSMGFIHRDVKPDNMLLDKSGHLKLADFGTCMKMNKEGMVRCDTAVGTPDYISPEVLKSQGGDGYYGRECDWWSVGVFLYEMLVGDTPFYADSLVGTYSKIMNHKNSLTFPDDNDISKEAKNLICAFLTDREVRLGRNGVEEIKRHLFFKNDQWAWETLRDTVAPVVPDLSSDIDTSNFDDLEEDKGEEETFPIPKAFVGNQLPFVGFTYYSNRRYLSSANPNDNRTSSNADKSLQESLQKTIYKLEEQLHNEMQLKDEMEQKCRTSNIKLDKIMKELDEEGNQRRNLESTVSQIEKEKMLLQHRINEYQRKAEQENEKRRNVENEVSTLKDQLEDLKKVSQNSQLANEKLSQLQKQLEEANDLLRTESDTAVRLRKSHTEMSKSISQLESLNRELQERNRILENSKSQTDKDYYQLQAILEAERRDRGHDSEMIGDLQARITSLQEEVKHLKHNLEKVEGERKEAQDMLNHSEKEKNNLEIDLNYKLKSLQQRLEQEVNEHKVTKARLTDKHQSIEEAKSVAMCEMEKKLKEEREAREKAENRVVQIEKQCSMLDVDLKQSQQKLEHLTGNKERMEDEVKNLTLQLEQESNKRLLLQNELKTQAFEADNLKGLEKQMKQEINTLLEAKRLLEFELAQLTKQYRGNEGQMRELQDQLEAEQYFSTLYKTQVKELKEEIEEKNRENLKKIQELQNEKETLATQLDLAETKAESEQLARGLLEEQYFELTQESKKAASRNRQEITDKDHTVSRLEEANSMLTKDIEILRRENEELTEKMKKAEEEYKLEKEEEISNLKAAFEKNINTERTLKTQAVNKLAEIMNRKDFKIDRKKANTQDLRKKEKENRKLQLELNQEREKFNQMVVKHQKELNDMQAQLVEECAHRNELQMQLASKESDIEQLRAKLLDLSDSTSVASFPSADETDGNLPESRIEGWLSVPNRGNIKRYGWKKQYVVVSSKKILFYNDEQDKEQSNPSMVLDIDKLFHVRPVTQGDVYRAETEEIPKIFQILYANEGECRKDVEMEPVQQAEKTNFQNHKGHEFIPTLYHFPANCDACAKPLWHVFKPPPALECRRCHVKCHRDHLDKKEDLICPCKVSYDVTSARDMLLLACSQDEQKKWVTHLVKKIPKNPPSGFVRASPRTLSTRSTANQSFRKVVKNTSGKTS
Description: ROCK enzyme inhibitory activity of the compounds of the present invention has been assayed as follow. An aqueous solution of Rho kinase substrate MYTP was added to 96-well plate. Following incubation for overnight at 4° C., the plate was blocked by using blocking buffer containing BSA. To the plate was added reaction buffer containing each concentration of compound, suitable concentration of human ROCK I (Caruna Biosciences), ATP, β-glycerol phosphate, EGTA, sodium orthovanadate and DTT, and then the plate was incubated for 1 hour. After washing the plate by washing buffer, anti-phosphothreonin antibody was added to the plate, and then the plate was incubated for 1 hour. After washing the plate by washing buffer again, HRP-conjugated anti-phosphorylated protein antibody was added to the plate, and then the plate was incubated for 1 hour. After washing the plate by washing buffer again, colorimetric substrate TMB microwell peroxidase substrate was added to the plate, and then the plate was incubated for appropriate time. After incubation, sulfuric acid was added to the plate to stop the reaction, and then absorbance (450 nm) was measured by using spectromether. Based, on the absorbance for each compound, the data is fit using Prism software to obtain a IC50 value.

Male SD rats = assay: Changes in hindlimb weight distribution after intra-articular monosodium iodoacetate (MIA) injection; assay type: in vivo; details: Rattus norvegicus, 504 h; oral administration; MIA-injected rats, three weeks after injection
From the text: As intra-articular injection of monosodium iodoacetate (MIA) induced human osteoarthritis-like histopathological changes in knee joint, this model would be very useful for the study of human osteoarthritis. Recently, it is reported the clinical scores of the joint pain were closely correlated to the grade of histological findings (J Vet Med Sci 65, 1195, 2003) and this model may be useful for estimation of therapeutic effects of pain with osteoarthritis.
Male SD rats were anesthetized with halothane (Takeda, Japan) and given single intra-articular injection of 1 mg of monosodium iodoacetate (MIA; Sigma, St. Louis, USA) through the infrapatellar ligament of the right knee. MIA was dissolved with physiologic saline and administered in a volume of 50 μl using a 27-gauge, 0.5-inch needle. Three weeks after the injection, hindlimb weight distribution was determined using an incapacitance tester (Linton Instrumentation, Norfork, UK). Rats were allowed to acclimate to the testing apparatus and when stationary, readings were taken over a 5 s period. […] Each group in each experiment was performed in about 8 animals.

beagle dogs = assay: In vivo eye pressure lowering effect (IOP), beagle dogs; details: beagle dog, 10 mM applied topically
Description: (§1) The intraocular pressure (IOP) was determined in beagle dogs and rats with tonometer (TONO-PEN™, MENTOR and TonoLab™, M. E. Technica), specially calibrated for the eye of the particular species. In beagle dogs, the cornea was anesthetized with oxibuprocain before each IOP measurement.

female C57Bl/6 mice = assay: Bleomycin-induced lung fibrosis model, hydroxyproline content of the lung; assay type: in vivo, mouse; details: 1 mg/kg orally once a day from day 1 to day 35; lung removed day 36
Description: To induce pulmonary fibrosis, ten mg/kg bleomycin (Nipponkayaku Industries Ltd, Tokyo, Japan) was intraperitoneally injected into female C57Bl/6 mice (9 weeks old, Charles River Laboratories Japan, Inc.) once a day from day 1 to day 10. Bleomycin was dissolved in saline and control mice were intraperitoneally injected with saline. The compound or vehicle was orally administered to the mice once a day from day 1 to day 35. On day 36, mice were sacrificed under anesthesia of pentobarbital and the lung was surgically removed. Hydroxyproline content of the lung was assayed according to the method of Woessner JF (1).

rats = assay: In vivo eye pressure lowering effect (IOP), rats; details: rat, 10 mM applied topically
Description: as §1

SMILES	IC50 (human ROCK I) [nM]	change in vivo at 10 mg/kg (Male Wistar rats [1]) [%]	ED30 (Male Wistar rats [2]) [mg/kg]	ED50 (Male SD rats) [mg/kg]	IOP change in animals after 4 hours (beagle dogs) [% reduced in beagle dog]	reduction of hydroxyproline content of the lung (female C57Bl/6 mice) [%]	IOP change in animals after 4 hours (rats) [% reduced in rat]
COc1nc(N[C@H]2CC[C@H](N)CC2)c(F)cc1C(N)=O [Example 2, 6-[(trans-4-aminocyclohexyl)amino]-5-fluoro-2-methoxynicotinamide dihydrochloride]	2	> 130	< 0.5	< 1			
COc1nc(N[C@H]2CC[C@H](N)CC2)c(F)cc1C(N)=O [Example 3, 6-[(trans-4-aminocyclohexyl)amino]-5-fluoro-2-methoxynicotinamide]					−16	66	
CCOc1nc(N[C@H]2CC[C@H](N)CC2)c(F)cc1C(N)=O [Example 7, 6-[(trans-4-aminocyclohexyl)amino]-2-ethoxy-5-fluoronicotinamide dihydrochloride]	9	> 130	< 0.5				
CCOc1nc(N[C@H]2CC[C@H](N)CC2)c(Br)cc1C(N)=O [Example 9, 6-[(trans-4-aminocyclohexyl)amino]-5-bromo-2-ethoxynicotinamide]							−30
CCOc1nc(N[C@H]2CC[C@H](N)CC2)c(I)cc1C(N)=O [Example 10, 6-[(trans-4-aminocyclohexyl)amino]-5-iodo-2-ethoxynicotinamide]							−26
COc1nc(N[C@H]2CC[C@H](NS(C)(=O)=O)CC2)c(F)cc1C(N)=O [Example 28, 6-[(trans-4-methanesulfonylaminocyclohexyl)amino]-5-fluoro-2-methoxynicotinamide]	58	> 130	< 0.5				
COc1nc(N[C@H]2CC[C@H](NC3CCS(=O)(=O)CC3)CC2)c(F)cc1C(N)=O [Example 30, 6-({trans-4-[(1,1-dioxidotetrahydro-2H-thiopyran-4-yl)amino]cyclohexyl}amino)-5-fluoro-2-methoxynicotinamide]	7	> 130	< 0.5				

Continued, in another order:

IC50 (human ROCK I) [nM]	SMILES	change in vivo at 10 mg/kg (Male Wistar rats [1]) [%]	ED30 (Male Wistar rats [2]) [mg/kg]	ED50 (Male SD rats) [mg/kg]	IOP change in animals after 4 hours (beagle dogs) [% reduced in beagle dog]	reduction of hydroxyproline content of the lung (female C57Bl/6 mice) [%]	IOP change in animals after 4 hours (rats) [% reduced in rat]
2	COc1nc(N[C@H]2CC[C@H](N)CC2)ccc1C(N)=O [Example 1, 6-[(trans-4-aminocyclohexyl)amino]-2-methoxynicotinamide dihydrochloride]	> 130	< 0.5	< 1			
5	COc1nc(N[C@H]2CC[C@H](N)CC2)c(Cl)cc1C(N)=O [Example 4, 6-[(trans-4-aminocyclohexyl)amino]-5-chloro-2-methoxynicotinamide]	> 130	< 0.5	< 1			
39	COc1nc(N[C@H]2CC[C@H](N)CC2)c(Br)cc1C(N)=O [Example 5, 6-[(trans-4-aminocyclohexyl)amino]-5-bromo-2-methoxynicotinamide]	> 130	< 0.5	< 3			
10	CCOc1nc(N[C@H]2CC[C@H](N)CC2)ccc1C(N)=O [Example 6, 6-[(trans-4-aminocyclohexyl)amino]-2-ethoxynicotinamide dihydrochloride]	> 130	< 0.5				
